Consider 18 compounds from ChEMBL document CHEMBL5291721, “A preclinical secondary pharmacology resource illuminates target-adverse drug reaction associations of marketed drugs” (Nat Commun, 2023).

Structures are written as SMILES. A value given as a limit tells only on which side of the number the result lay.

Assay [1] concerns the target Voltage-dependent L-type calcium channel subunit alpha-1C (Rattus norvegicus, UniProt P22002). It is filed as functional.
Assay [2] deals with T1, Muscarinic acetylcholine receptor M2 (Homo sapiens, UniProt P08172).
T1 sequence (P08172 whole entry): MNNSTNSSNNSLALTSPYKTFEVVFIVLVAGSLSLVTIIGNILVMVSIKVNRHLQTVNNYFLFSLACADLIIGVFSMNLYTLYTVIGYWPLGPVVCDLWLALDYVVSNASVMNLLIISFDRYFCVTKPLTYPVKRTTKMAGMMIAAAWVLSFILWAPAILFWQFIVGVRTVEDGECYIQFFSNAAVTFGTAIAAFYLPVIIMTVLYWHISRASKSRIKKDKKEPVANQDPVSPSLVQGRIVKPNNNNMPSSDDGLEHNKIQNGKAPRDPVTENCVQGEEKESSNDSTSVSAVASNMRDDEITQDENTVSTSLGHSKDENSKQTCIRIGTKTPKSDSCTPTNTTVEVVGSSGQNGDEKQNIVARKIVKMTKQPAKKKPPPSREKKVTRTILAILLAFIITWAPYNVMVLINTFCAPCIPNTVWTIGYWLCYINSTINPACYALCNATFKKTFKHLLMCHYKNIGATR
It is filed as functional, cell-based.

The target of assay [3] is T2, 5-hydroxytryptamine receptor 2C (Homo sapiens, UniProt P28335).
T2 sequence (P28335 whole entry): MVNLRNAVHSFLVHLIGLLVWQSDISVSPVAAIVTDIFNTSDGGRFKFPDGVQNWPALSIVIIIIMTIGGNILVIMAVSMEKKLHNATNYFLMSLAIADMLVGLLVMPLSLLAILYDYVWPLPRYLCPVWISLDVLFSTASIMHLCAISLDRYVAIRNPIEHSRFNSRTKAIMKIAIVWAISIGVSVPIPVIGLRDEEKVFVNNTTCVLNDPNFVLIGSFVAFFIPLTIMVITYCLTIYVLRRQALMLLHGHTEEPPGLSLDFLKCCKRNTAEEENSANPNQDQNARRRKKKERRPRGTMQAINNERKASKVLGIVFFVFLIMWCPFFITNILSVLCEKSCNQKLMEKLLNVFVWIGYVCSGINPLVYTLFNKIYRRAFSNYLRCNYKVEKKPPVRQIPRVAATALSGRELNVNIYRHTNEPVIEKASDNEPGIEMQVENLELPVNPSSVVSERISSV

Assay [4] concerns the target Motilin receptor (Homo sapiens, UniProt O43193).
Assay [5] concerns the target Kappa-type opioid receptor (Homo sapiens, UniProt P41145).
For assay [6], the target named is T3, Progesterone receptor (Homo sapiens, UniProt P06401).
T3 sequence (P06401 whole entry): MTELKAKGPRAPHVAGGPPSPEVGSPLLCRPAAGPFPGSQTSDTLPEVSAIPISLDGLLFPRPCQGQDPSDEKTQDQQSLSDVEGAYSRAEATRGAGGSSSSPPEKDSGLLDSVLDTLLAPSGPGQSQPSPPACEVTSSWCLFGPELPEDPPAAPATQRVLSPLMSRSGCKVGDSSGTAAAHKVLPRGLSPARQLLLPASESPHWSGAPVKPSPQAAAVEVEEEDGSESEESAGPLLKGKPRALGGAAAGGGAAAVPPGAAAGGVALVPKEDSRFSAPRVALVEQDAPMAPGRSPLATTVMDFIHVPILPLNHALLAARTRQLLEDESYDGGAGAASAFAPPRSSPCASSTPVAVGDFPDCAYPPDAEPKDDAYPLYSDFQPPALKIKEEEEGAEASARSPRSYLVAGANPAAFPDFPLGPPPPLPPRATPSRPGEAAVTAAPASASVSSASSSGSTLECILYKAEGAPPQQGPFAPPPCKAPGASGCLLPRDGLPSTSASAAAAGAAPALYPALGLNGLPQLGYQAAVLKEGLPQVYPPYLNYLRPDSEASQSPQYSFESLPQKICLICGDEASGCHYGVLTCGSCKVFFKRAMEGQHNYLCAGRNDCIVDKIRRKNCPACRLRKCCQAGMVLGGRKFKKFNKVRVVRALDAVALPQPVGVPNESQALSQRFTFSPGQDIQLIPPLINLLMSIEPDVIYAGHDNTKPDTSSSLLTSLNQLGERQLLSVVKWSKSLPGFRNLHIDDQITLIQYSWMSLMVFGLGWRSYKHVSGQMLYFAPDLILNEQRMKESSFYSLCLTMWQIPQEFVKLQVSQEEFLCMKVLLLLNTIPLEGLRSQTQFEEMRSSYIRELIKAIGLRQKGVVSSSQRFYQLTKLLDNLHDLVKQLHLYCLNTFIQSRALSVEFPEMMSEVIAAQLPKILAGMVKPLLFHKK
It counts as functional.

The target of assay [7] is T4, Thromboxane A2 receptor (Homo sapiens, UniProt P21731).
T4 sequence (P21731 whole entry): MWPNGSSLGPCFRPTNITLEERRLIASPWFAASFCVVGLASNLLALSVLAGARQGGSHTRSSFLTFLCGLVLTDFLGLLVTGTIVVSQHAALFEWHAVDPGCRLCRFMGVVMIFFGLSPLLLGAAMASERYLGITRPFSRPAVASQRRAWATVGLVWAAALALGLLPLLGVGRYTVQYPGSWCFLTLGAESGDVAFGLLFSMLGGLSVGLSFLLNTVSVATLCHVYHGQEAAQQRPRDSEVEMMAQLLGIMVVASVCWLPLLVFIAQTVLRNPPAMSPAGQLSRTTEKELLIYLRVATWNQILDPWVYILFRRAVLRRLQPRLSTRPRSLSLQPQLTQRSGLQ

Assay [8] concerns the target T5, Amine oxidase [flavin-containing] A (Homo sapiens, UniProt P21397).
T5 sequence (P21397 whole entry): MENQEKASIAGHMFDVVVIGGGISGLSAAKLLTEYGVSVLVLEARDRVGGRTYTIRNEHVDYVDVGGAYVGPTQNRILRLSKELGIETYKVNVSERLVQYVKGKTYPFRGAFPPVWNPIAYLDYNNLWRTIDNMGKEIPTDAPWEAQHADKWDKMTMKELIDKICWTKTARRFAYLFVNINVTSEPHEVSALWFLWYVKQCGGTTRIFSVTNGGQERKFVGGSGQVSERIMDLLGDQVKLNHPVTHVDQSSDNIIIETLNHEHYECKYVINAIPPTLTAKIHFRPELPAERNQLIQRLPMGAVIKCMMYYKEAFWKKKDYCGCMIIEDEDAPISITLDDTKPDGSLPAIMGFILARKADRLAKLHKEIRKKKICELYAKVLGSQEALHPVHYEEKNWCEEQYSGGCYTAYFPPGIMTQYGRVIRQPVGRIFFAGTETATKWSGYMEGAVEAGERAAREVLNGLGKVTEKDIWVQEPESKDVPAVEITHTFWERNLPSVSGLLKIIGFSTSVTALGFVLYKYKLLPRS
It counts as functional.
Note: assay procedure not described here.

Sequence of Motilin receptor (O43193 whole entry): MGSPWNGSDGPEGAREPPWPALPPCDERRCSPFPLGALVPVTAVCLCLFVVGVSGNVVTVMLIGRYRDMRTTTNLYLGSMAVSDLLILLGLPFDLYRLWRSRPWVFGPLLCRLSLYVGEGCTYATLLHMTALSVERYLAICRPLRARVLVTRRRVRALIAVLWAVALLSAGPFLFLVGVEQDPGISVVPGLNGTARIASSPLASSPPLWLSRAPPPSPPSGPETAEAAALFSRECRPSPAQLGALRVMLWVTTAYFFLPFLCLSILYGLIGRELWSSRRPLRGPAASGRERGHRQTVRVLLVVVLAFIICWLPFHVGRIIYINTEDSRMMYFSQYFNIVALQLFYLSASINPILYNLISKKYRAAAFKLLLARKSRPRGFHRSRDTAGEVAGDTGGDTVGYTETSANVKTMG
Sequence of Kappa-type opioid receptor (P41145 whole entry): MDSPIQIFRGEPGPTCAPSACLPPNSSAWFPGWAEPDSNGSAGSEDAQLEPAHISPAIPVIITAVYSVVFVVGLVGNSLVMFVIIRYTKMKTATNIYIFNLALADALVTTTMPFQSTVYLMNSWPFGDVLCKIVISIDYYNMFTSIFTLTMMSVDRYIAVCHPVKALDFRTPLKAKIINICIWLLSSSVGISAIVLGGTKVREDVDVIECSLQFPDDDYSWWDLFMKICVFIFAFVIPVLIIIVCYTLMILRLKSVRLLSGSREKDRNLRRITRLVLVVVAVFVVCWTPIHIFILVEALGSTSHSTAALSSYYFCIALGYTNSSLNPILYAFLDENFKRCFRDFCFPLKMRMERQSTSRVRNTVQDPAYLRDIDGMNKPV
Sequence of Voltage-dependent L-type calcium channel subunit alpha-1C (P22002 whole entry): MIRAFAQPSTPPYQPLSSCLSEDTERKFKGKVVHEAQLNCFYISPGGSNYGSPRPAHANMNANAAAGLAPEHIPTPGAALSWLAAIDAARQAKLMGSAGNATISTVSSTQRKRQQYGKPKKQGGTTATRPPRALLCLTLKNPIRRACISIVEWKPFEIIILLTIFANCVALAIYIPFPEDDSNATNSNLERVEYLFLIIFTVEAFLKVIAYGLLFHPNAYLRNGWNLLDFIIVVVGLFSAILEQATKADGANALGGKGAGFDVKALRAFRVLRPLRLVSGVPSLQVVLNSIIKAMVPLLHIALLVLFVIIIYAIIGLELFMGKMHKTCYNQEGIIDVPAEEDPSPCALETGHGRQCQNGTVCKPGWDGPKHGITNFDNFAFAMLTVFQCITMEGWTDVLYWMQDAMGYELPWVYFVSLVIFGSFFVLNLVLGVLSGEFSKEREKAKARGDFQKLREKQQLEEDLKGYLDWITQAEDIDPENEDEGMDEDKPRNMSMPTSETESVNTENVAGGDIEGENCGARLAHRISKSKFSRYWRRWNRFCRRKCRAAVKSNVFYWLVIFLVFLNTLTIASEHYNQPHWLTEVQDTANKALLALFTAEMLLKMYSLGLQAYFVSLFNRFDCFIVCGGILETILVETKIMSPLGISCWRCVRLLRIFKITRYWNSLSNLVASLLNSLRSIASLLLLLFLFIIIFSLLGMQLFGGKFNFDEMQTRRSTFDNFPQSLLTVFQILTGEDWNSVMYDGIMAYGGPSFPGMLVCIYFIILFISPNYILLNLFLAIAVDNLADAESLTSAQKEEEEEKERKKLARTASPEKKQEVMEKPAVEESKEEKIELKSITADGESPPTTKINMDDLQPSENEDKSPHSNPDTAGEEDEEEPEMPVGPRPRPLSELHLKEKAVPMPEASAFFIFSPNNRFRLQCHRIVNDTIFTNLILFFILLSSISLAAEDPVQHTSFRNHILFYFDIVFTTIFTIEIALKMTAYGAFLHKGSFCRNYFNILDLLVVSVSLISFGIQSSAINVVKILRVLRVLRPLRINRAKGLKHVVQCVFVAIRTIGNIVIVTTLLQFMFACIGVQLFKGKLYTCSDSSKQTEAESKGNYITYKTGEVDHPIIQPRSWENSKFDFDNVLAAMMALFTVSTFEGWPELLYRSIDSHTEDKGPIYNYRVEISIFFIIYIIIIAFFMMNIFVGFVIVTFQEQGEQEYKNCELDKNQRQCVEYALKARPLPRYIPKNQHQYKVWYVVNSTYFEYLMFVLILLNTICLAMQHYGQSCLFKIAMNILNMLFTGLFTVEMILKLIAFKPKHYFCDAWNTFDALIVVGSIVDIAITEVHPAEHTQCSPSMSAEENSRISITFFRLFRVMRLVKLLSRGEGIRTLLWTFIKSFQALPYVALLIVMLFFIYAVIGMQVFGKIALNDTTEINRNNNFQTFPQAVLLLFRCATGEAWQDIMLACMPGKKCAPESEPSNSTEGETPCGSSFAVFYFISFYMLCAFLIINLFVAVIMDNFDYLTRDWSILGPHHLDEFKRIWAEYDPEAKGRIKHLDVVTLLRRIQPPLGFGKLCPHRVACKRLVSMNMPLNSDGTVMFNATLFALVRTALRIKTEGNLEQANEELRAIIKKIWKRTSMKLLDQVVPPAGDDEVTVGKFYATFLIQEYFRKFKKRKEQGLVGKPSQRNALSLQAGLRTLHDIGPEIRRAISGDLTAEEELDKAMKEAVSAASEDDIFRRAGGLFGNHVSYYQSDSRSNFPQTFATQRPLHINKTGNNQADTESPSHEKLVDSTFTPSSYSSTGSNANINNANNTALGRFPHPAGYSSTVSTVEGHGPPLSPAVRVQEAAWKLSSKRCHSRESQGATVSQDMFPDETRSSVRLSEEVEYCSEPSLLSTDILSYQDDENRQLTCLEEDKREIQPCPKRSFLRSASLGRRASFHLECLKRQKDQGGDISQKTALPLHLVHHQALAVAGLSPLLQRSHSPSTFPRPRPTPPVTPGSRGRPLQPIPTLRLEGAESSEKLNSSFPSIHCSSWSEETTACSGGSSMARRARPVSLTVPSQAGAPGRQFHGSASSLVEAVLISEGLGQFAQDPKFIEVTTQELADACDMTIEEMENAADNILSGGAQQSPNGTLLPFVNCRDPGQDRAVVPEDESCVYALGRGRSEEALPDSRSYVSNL

What is called AC50 is the midpoint of the concentration-response curve, whichever way the signal moves. On to `O=C1C(O)=C([C@H]2CC[C@H](c3ccc(Cl)cc3)CC2)C(=O)c2ccccc21` [ATOVAQUONE], for which the AC50 in assay [1], in assay [2], in assay [3], in assay [4], in assay [5] and in assay [6] was greater than 30 µM each time. Further, the AC50 in assay [7] and in assay [8] was greater than 30 µM throughout.
In the case of `COc1ccc(CCNCC(O)COc2cccc(C)c2)cc1OC` (configuration not stated) [BEVANTOLOL], the AC50 in assay [1] is greater than 10 µM; in assay [2] it was greater than 10 µM; in assay [3], greater than 30 µM; in assay [4] it was greater than 10 µM; in assay [5], greater than 10 µM; in assay [6], greater than 10 µM. In addition, the AC50 in assay [7] and in assay [8] was greater than 10 µM in each case.
Consider `Brc1c(NC2=NCCN2)ccc2nccnc12` [BRIMONIDINE], for which the AC50 in assay [2], in assay [3], in assay [4], in assay [5], in assay [6] and in assay [8] was greater than 30 µM in each case.
On to `CC(CC1c2ccccc2CCc2ccccc21)CN(C)C` (configuration not stated) [BUTRIPTYLINE], for which the AC50 in assay [3] was 3 µM; in assay [5], greater than 30 µM; in assay [8], greater than 30 µM.
Consider `CC(C)(C)NCC(O)COc1cccc2c1CCC(=O)N2` (configuration not stated) [CARTEOLOL], for which the concentration at half-maximal activity (AC50) in assay [1] is greater than 10 µM; in assay [2] it was greater than 10 µM; in assay [3] it was greater than 30 µM; in assay [4], greater than 10 µM; in assay [5], 11.6 µM; in assay [6], greater than 10 µM. Moreover, the AC50 in assay [7] and in assay [8] was greater than 10 µM throughout.
Take `Nc1nc(Cl)nc2c1ncn2[C@H]1C[C@H](O)[C@@H](CO)O1` [CLADRIBINE]: the AC50 in assay [2], in assay [3], in assay [4], in assay [5], in assay [6] and in assay [8] was greater than 30 µM throughout.
Regarding `Clc1ccccc1C(c1ccccc1)(c1ccccc1)n1ccnc1` [CLOTRIMAZOLE], the AC50 in assay [1] was 13.6 µM; in assay [2], greater than 10 µM; in assay [3] it was greater than 30 µM; in assay [5] it was 0.746 µM; in assay [8], greater than 10 µM.
With `COc1ccc2c3c1O[C@H]1[C@@H](O)CC[C@H]4[C@@H](C2)N(C)CC[C@@]341` [DIHYDROCODEINE], the figures for the AC50 in assay [3], in assay [5] and in assay [8] were greater than 10 µM, greater than 30 µM and greater than 30 µM, respectively.
In the case of `NC(=O)OCC(COC(N)=O)c1ccccc1` [FELBAMATE], the AC50 in assay [1] is greater than 10 µM; in assay [2] it was greater than 10 µM; in assay [3], greater than 30 µM; in assay [4], greater than 10 µM; in assay [5], greater than 10 µM; in assay [6] it was greater than 10 µM. The AC50 in assay [7] and in assay [8] was greater than 10 µM in each case.
With `Fc1ccc(C(c2ccccc2)(c2ccccc2F)n2ccnc2)cc1` (configuration not stated) [FLUTRIMAZOLE], the AC50 in assay [1] is greater than 30 µM; in assay [2], greater than 30 µM; in assay [3], greater than 30 µM; in assay [4], 27 µM; in assay [5], 0.93 µM; in assay [6], greater than 30 µM. The AC50 is 30 µM in assay [7] and greater than 30 µM in assay [8].
Regarding `Cc1c(OCC(F)(F)F)ccnc1C[S+]([O-])c1nc2ccccc2[nH]1` (configuration not stated) [LANSOPRAZOLE], the AC50 in assay [1] was greater than 10 µM; in assay [2] it was greater than 10 µM; in assay [3], greater than 10 µM; in assay [4], greater than 10 µM; in assay [5], 4.88 µM; in assay [7] it was 3.46 µM. In assay [8], this compound yielded an AC50 greater than 10 µM.
Consider `NC(=O)CN1CC(O)CC1=O` (configuration not stated) [OXIRACETAM], for which the AC50 in assay [2], in assay [3], in assay [4], in assay [5], in assay [6] and in assay [7] was greater than 30 µM in each case. The same compound gave an AC50 in assay [8] greater than 30 µM.
For `Cc1cc(C(C)(C)C)c(O)c(C)c1CC1=NCCN1` [OXYMETAZOLINE], the AC50 in assay [2] is greater than 30 µM; in assay [3], 6.8 µM; in assay [6], greater than 30 µM; in assay [8], greater than 30 µM.
Regarding `C[C@H]1COc2c(C3(N)CC3)c(F)cc3c(=O)c(C(=O)O)cn1c23` [PAZUFLOXACIN], the AC50 was greater than 10 µM in assay [1]; greater than 10 µM in assay [2]; greater than 30 µM in assay [3]; greater than 10 µM in assay [4]; greater than 10 µM in assay [5]; greater than 10 µM in assay [7]. Moreover, the AC50 in assay [8] is greater than 10 µM.
`CC/C(=C(\c1ccccc1)c1ccc(OCCN(C)C)cc1)c1ccccc1` [TAMOXIFEN]: the AC50 in assay [1] was greater than 10 µM; in assay [2], greater than 10 µM; in assay [3], 7 µM; in assay [5] it was 8.53 µM; in assay [8], greater than 10 µM.
Turning to `COc1cccc(C2(O)CCCCC2CN(C)C)c1` (configuration not stated) [TRAMADOL], the AC50 in assay [1] is greater than 10 µM; in assay [3] it was greater than 30 µM; in assay [4], greater than 10 µM; in assay [5], greater than 10 µM; in assay [7] it was greater than 30 µM; in assay [8], greater than 10 µM.
For the compound `Cc1nnc2n1-c1ccc(Cl)cc1C(c1ccccc1Cl)=NC2` [TRIAZOLAM], the AC50 is greater than 10 µM in assay [1]; greater than 10 µM in assay [2]; greater than 30 µM in assay [3]; greater than 10 µM in assay [4]; greater than 30 µM in assay [7]; greater than 10 µM in assay [8].
For the compound `CC1(C)CCC(CN2CCN(c3ccc(C(=O)NS(=O)(=O)c4ccc(NCC5CCOCC5)c([N+](=O)[O-])c4)c(Oc4cnc5[nH]ccc5c4)c3)CC2)=C(c2ccc(Cl)cc2)C1` [VENETOCLAX], the AC50 in assay [6] and in assay [8] was greater than 30 µM throughout.
